These results are taken from ChEMBL document CHEMBL1201862, “PubChem BioAssay data set” (2004).

Among the test systems are A498; COLO 205; UACC-257; SF-539; UO-31; NCI-H460; SNB-19; Malme-3M; SN12C; HCT-15; KM12; SW-620; HCT-116; RPMI-8226; TK-10; IGROV-1; SNB-75; NCI-H522.
Common to all, as to experiment: DTP human tumour cell line panel, 48 h

The structures appear in SMILES notation.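 Step 1: Grow cells in 96-well plates. Step 2: Expose to compound for 48 hours at 5 concentrations. Step 3: Interpolate endpoints linearly; if unreached, use highest concentration. At the GI50, growth is halved.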 Activity calls are given as the source filed them. No stated cut-off is given here; in the data, active = GI50 up to about 1.1 µM and inactive = higher. Bounds are passed on as bounds.

A word on the GI50: it is the concentration giving 50% growth inhibition. For the compound `COC(=O)C#Cc1cccc(OC)c1OC`, the GI50 in the test with A498 is 45 µM (inactive); in the test with COLO 205, 27 µM (inactive); with UACC-257 it was > 100 µM (inactive); in the test with SF-539, 21.6 µM (inactive); in the test with UO-31, 20.4 µM (inactive); in the test on NCI-H460 it was 48.1 µM (inactive). Moreover, the GI50 is 60.3 µM (inactive) with SNB-19; 28 µM (inactive) in the test on Malme-3M; 48.1 µM (inactive) with SN12C; 32.4 µM with HCT-15; 45.4 µM (inactive) in the test with KM12; 47 µM (inactive) in the test on SW-620. For the same compound, the GI50 is 33.6 µM (inactive) with HCT-116, 30.1 µM (inactive) in the test with RPMI-8226 and 41.8 µM (inactive) in the test on TK-10.
Turning to `C/N=c1/ssc(=S)n1C(C)C`, the GI50 in the test on COLO 205 is 16.1 µM (inactive); with UACC-257 it was 14.5 µM (inactive); in the test on IGROV-1, 17.5 µM (inactive); in the test with SF-539, 25.8 µM (inactive); in the test on UO-31, 37.7 µM (inactive); in the test with NCI-H460, 24.2 µM (inactive). In addition, the GI50 with SNB-75 is 1.11 µM (active); in the test on SNB-19, > 100 µM (inactive); in the test with KM12 it was 25.2 µM (inactive); with SW-620, 4.24 µM (inactive); in the test on HCT-116, 19.7 µM (inactive); in the test on RPMI-8226 it was 11.6 µM (inactive). The GI50 in the test with TK-10 is 44.6 µM (inactive).
For the compound `O=C(O[C@@H](/C=C/c1ccccc1)P1(=O)N(Cc2ccccc2)[C@H]2CCCC[C@@H]2N1Cc1ccccc1)c1ccccc1`, the GI50 in the test on A498 was 2.12 µM (inactive); in the test on COLO 205 it was 1.7 µM (inactive); in the test on UACC-257 it was 2.86 µM (inactive); in the test on IGROV-1, 4.79 µM (inactive); in the test with SF-539, 4.57 µM (inactive); in the test with UO-31 it was 3.01 µM (inactive). Further, the GI50 is 2.01 µM (inactive) with NCI-H460; 5.6 µM (inactive) in the test with SNB-75; 5.81 µM (inactive) in the test on SNB-19; 4.2 µM (inactive) in the test on Malme-3M; 2.53 µM (inactive) in the test with SN12C; 3.28 µM with HCT-15. For the same compound, the GI50 in the test on NCI-H522 was 3.55 µM (inactive); in the test on KM12, 3.41 µM (inactive); in the test on SW-620, 3.69 µM (inactive); in the test with HCT-116, 3.02 µM (inactive); with RPMI-8226, 2.29 µM (inactive); in the test with TK-10, 3.52 µM (inactive).
As for `CCOC(=O)c1csc(NC(=O)CCN(CC)CC)n1`, the GI50 in the test with A498 is 91.2 µM (inactive); in the test on COLO 205 it was 33.8 µM (inactive); in the test on UACC-257 it was 28.1 µM (inactive); in the test on IGROV-1, 39.7 µM (inactive); in the test with SF-539, 26.9 µM (inactive); in the test on UO-31, 35.7 µM (inactive). In addition, the GI50 with NCI-H460 is > 100 µM (inactive); with SNB-75 it was 28.1 µM (inactive); with SNB-19, > 100 µM (inactive); in the test on HCT-15 it was 27.6 µM; in the test with KM12, 23.5 µM (inactive); in the test with SW-620, 27.2 µM (inactive). Besides, the GI50 in the test with RPMI-8226 is 0.0817 µM (active); in the test on TK-10 it was 23.8 µM (inactive).
In the case of `COc1nc(Cl)c(Cl)c(Cl)n1.COc1nc(Cl)nc(Cl)c1Cl`, the GI50 with A498 is 8.61 µM (inactive); in the test with COLO 205, 14.2 µM (inactive); with UACC-257 it was 3.83 µM (inactive); in the test with IGROV-1 it was 4.53 µM (inactive); with SF-539 it was 9.35 µM (inactive); in the test on UO-31, 0.893 µM (active). For the same compound, the GI50 in the test on NCI-H460 is 5.6 µM (inactive); with SNB-75, 10.3 µM (inactive); with SNB-19, 4.97 µM (inactive); with Malme-3M, 10.6 µM (inactive); in the test on SN12C, 23.3 µM (inactive); in the test on HCT-15, 2.19 µM. In addition, the GI50 with NCI-H522 is 0.675 µM (active); in the test on KM12, 0.485 µM (active); in the test with SW-620, 3.62 µM (inactive); with HCT-116, 8.2 µM (inactive); in the test with RPMI-8226 it was 0.938 µM (active); with TK-10, 8.73 µM (inactive).
